Measured values taken from PubChem BioAssay (NCI).
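Following 48 hours of exposure in 96-well plates, responses at five concentrations were used to interpolate endpoints linearly. At the TGI there is no net growth.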

What was measured:
Assay in all cases: NCI anticancer screen, dose series, 48 h
786-0 renal = test system: 786-0 renal
A498 renal = test system: A498 renal
A549 NSCLC = test system: A549 NSCLC
ACHN renal = test system: ACHN renal
BT-549 breast = test system: BT-549 breast
CAKI-1 renal = test system: CAKI-1 renal
CCRF-CEM leukemia = test system: CCRF-CEM leukemia
COLO 205 colon = test system: COLO 205 colon
DU-145 prostate = test system: DU-145 prostate
EKVX NSCLC = test system: EKVX NSCLC
HCC-2998 colon = test system: HCC-2998 colon
HCT-116 colon = test system: HCT-116 colon
HCT-15 colon = test system: HCT-15 colon
HL-60(TB) leukemia = test system: HL-60(TB) leukemia
HOP-62 NSCLC = test system: HOP-62 NSCLC
HOP-92 NSCLC = test system: HOP-92 NSCLC
HS 578T breast = test system: HS 578T breast
HT29 colon = test system: HT29 colon
IGROV1 ovarian = test system: IGROV1 ovarian
K-562 leukemia = test system: K-562 leukemia
KM12 colon = test system: KM12 colon
LOX IMVI melanoma = test system: LOX IMVI melanoma
M14 melanoma = test system: M14 melanoma
MALME-3M melanoma = test system: MALME-3M melanoma
MCF7 breast = test system: MCF7 breast
MDA-MB-231 breast = test system: MDA-MB-231 breast
MDA-MB-435 = test system: MDA-MB-435
MDA-N = test system: MDA-N
MOLT-4 leukemia = test system: MOLT-4 leukemia
NCI-H23 lung = test system: NCI-H23 lung
NCI-H460 lung = test system: NCI-H460 lung
NCI-H522 lung = test system: NCI-H522 lung
NCI/ADR-RES ovarian = test system: NCI/ADR-RES ovarian
OVCAR-3 ovarian = test system: OVCAR-3 ovarian
OVCAR-5 ovarian = test system: OVCAR-5 ovarian
OVCAR-8 ovarian = test system: OVCAR-8 ovarian
PC-3 prostate = test system: PC-3 prostate
RPMI-8226 leukemia = test system: RPMI-8226 leukemia
RXF 393 renal = test system: RXF 393 renal
SF-268 CNS = test system: SF-268 CNS
SF-295 CNS = test system: SF-295 CNS
SF-539 CNS = test system: SF-539 CNS
SK-MEL-2 melanoma = test system: SK-MEL-2 melanoma
SK-MEL-28 melanoma = test system: SK-MEL-28 melanoma
SK-MEL-5 melanoma = test system: SK-MEL-5 melanoma
SK-OV-3 ovarian = test system: SK-OV-3 ovarian
SN12C renal = test system: SN12C renal
SNB-19 CNS = test system: SNB-19 CNS
SNB-75 CNS = test system: SNB-75 CNS
SR leukemia = test system: SR leukemia
SW-620 colon = test system: SW-620 colon
T-47D breast = test system: T-47D breast
TK-10 renal = test system: TK-10 renal
U251 CNS = test system: U251 CNS
UACC-257 melanoma = test system: UACC-257 melanoma
UACC-62 melanoma = test system: UACC-62 melanoma
UO-31 renal = test system: UO-31 renal
NCI-H226 lung = test system: NCI-H226 lung
OVCAR-4 ovarian = test system: OVCAR-4 ovarian

## COc1ccc(OC)c2sc(N3C(=O)/C(=C/c4ccc(Cl)cc4)N=C3c3ccccc3)nc12
786-0 renal
  TGI: > 100 µM
A498 renal
  TGI: > 100 µM
A549 NSCLC
  TGI: > 100 µM
ACHN renal
  TGI: > 100 µM
BT-549 breast
  TGI: > 100 µM
CAKI-1 renal
  TGI: > 100 µM
CCRF-CEM leukemia
  TGI: > 100 µM
COLO 205 colon
  TGI: > 100 µM
DU-145 prostate
  TGI: > 100 µM
EKVX NSCLC
  TGI: > 100 µM
HCC-2998 colon
  TGI: > 100 µM
HCT-116 colon
  TGI: > 100 µM
HCT-15 colon
  TGI: > 100 µM
HL-60(TB) leukemia
  TGI: > 100 µM
HOP-62 NSCLC
  TGI: > 100 µM
HOP-92 NSCLC
  TGI: > 100 µM
HS 578T breast
  TGI: > 100 µM
HT29 colon
  TGI: > 100 µM
IGROV1 ovarian
  TGI: > 100 µM
K-562 leukemia
  TGI: 86.6 µM
KM12 colon
  TGI: > 100 µM
LOX IMVI melanoma
  TGI: > 100 µM
M14 melanoma
  TGI: > 100 µM
MALME-3M melanoma
  TGI: > 100 µM
MCF7 breast
  TGI: 79.2 µM
MDA-MB-231 breast
  TGI: > 100 µM
MDA-MB-435
  TGI: > 100 µM
MDA-N
  TGI: > 100 µM
MOLT-4 leukemia
  TGI: 66.8 µM
NCI-H23 lung
  TGI: > 100 µM
NCI-H460 lung
  TGI: > 100 µM
NCI-H522 lung
  TGI: > 100 µM
NCI/ADR-RES ovarian
  TGI: > 100 µM
OVCAR-3 ovarian
  TGI: > 100 µM
OVCAR-5 ovarian
  TGI: > 100 µM
OVCAR-8 ovarian
  TGI: > 100 µM
PC-3 prostate
  TGI: > 100 µM
RPMI-8226 leukemia
  TGI: > 100 µM
RXF 393 renal
  TGI: > 100 µM
SF-268 CNS
  TGI: > 100 µM
SF-295 CNS
  TGI: > 100 µM
SF-539 CNS
  TGI: > 100 µM
SK-MEL-2 melanoma
  TGI: > 100 µM
SK-MEL-28 melanoma
  TGI: > 100 µM
SK-MEL-5 melanoma
  TGI: > 100 µM
SK-OV-3 ovarian
  TGI: > 100 µM
SN12C renal
  TGI: > 100 µM
SNB-19 CNS
  TGI: > 100 µM
SNB-75 CNS
  TGI: > 100 µM
SR leukemia
  TGI: > 100 µM
SW-620 colon
  TGI: > 100 µM
T-47D breast
  TGI: 78.5 µM
TK-10 renal
  TGI: > 100 µM
U251 CNS
  TGI: > 100 µM
UACC-257 melanoma
  TGI: > 100 µM
UACC-62 melanoma
  TGI: > 100 µM
UO-31 renal
  TGI: > 100 µM

## COc1cc(/C=C(\C#N)c2nc3ccccc3o2)ccc1O
786-0 renal
  TGI: 66.4 µM
A498 renal
  TGI: 34.8 µM
A549 NSCLC
  TGI: 43.4 µM
ACHN renal
  TGI: 46.9 µM
BT-549 breast
  TGI: 34.5 µM
CAKI-1 renal
  TGI: 45.9 µM
CCRF-CEM leukemia
  TGI: > 100 µM
COLO 205 colon
  TGI: 33 µM
DU-145 prostate
  TGI: 65.1 µM
EKVX NSCLC
  TGI: 49.6 µM
HCC-2998 colon
  TGI: 41.9 µM
HCT-116 colon
  TGI: 34.3 µM
HCT-15 colon
  TGI: 42.6 µM
HL-60(TB) leukemia
  TGI: 55.3 µM
HOP-62 NSCLC
  TGI: 52.8 µM
HOP-92 NSCLC
  TGI: 50.8 µM
HS 578T breast
  TGI: 75.2 µM
HT29 colon
  TGI: 48.1 µM
IGROV1 ovarian
  TGI: 38.1 µM
K-562 leukemia
  TGI: > 100 µM
KM12 colon
  TGI: 37.7 µM
M14 melanoma
  TGI: 54.6 µM
MALME-3M melanoma
  TGI: 56.3 µM
MCF7 breast
  TGI: > 100 µM
MDA-MB-231 breast
  TGI: 68.5 µM
MDA-MB-435
  TGI: 41.6 µM
MDA-N
  TGI: > 100 µM
MOLT-4 leukemia
  TGI: > 100 µM
NCI-H226 lung
  TGI: 49 µM
NCI-H23 lung
  TGI: 70 µM
NCI-H460 lung
  TGI: 48.4 µM
NCI-H522 lung
  TGI: 27.8 µM
NCI/ADR-RES ovarian
  TGI: 64.3 µM
OVCAR-3 ovarian
  TGI: 40.9 µM
OVCAR-4 ovarian
  TGI: 40.7 µM
OVCAR-5 ovarian
  TGI: 61.2 µM
OVCAR-8 ovarian
  TGI: 50 µM
PC-3 prostate
  TGI: 66.4 µM
RPMI-8226 leukemia
  TGI: 63.6 µM
RXF 393 renal
  TGI: > 100 µM
SF-268 CNS
  TGI: 50.7 µM
SF-295 CNS
  TGI: 36.8 µM
SF-539 CNS
  TGI: 28.5 µM
SK-MEL-2 melanoma
  TGI: 47.3 µM
SK-MEL-28 melanoma
  TGI: 58.1 µM
SK-MEL-5 melanoma
  TGI: 36.3 µM
SK-OV-3 ovarian
  TGI: 36.7 µM
SN12C renal
  TGI: > 100 µM
SNB-19 CNS
  TGI: > 100 µM
SR leukemia
  TGI: > 100 µM
T-47D breast
  TGI: 46.9 µM
TK-10 renal
  TGI: 75 µM
U251 CNS
  TGI: 36.2 µM
UACC-257 melanoma
  TGI: > 100 µM
UACC-62 melanoma
  TGI: 40.5 µM
UO-31 renal
  TGI: 85.9 µM
